Literature values in patent US20250283177A1, “BIOMARKERS AND METHODS OF USE THEREOF FOR TREATMENT OF PERIPHERAL T-CELL LYMPHOMA” (BOARD OF REGENTS OF THE UNIVERSITY OF NEBRASKA, priority 2022, published 2025).
Where two headings read alike, the source gives them in different places.

Assays:
[1] = system: peripheral T-cell lymphoma (PTCL); conditions: for Overall response rate by common subtype: Phase II studies

Molecule	Overall response rate by common subtype ([1]; subtype AITL)	Overall response rate by common subtype ([1]; subtype ALCL)	Overall response rate by common subtype ([1]; subtype PTCL-NOS)	Benefit in PTCL subgroup (subgroups of PTCL; CD30+ PTCL, particularly ALCL)	Responsiveness to therapy ([1]; ALK(−) ALCL)	Benefit in PTCL subgroup (subgroups of PTCL; ALK+ALCL)	Benefit in PTCL subgroup (subgroups of PTCL; ATLL)
O=C(/C=C/c1cccc(S(=O)(=O)Nc2ccccc2)c1)NO [Belinostat]	46%	15%	23%	–	–	–	–
C#CCC(Cc1cnc2nc(N)nc(N)c2n1)c1ccc(C(=O)N[C@@H](CCC(=O)O)C(=O)O)cc1 (stereo partly shown) [Pralatrexate]	8%	29%	31%	–	–	–	–
Brentuximab vedotin	54%	86%	33%	striking benefits	highly responsive	–	–
C[C@@H](Oc1cc(-c2cnn(C3CCNCC3)c2)cnc1N)c1c(Cl)ccc(F)c1Cl [Crizotinib]	–	–	–	–	–	striking benefits	–
mogamulizumab (antibody, chains of the INN, looked up, V domains shown) VH: EVQLVESGGDLVQPGRSLRLSCAASGFIFSNYGMSWVRQAPGKGLEWVATISSASTYSYYPDSVKGRFTISRDNAKNSLYLQMNSLRVEDTALYYCGRHSDGNFAFGYWGQGTLVTVSS VL: DVLMTQSPLSLPVTPGEPASISCRSSRNIVHINGDTYLEWYLQKPGQSPQLLIYKVSNRFSGVPDRFSGSGSGTDFTLKISRVEAEDVGVYYCFQGSLLPWTFGQGTKVEIK	–	–	–	–	–	–	striking benefits
